{"source": "PubChem BioAssay AID328", "about": "(DTP/NCI, 2004)", "system": "BDF1 mice, P388 leukemia ip, median survival T/C", "experiment": "NCI In Vivo Anticancer Drug Screen. Data for tumor model P388 Leukemia (intraperitoneal) in B6D2F1 (BDF1) mice", "details": "endpoint: median survival time, higher = longer survival", "in_short": "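Mice carrying the transplantable tumour receive compound or vehicle. Survival is followed in each arm, and the treated measure is divided by the vehicle measure.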", "key": {"[1]": {"details": "dose: 50.0 mg/kg/injection, schedule: Q01DX009 (ip), vehicle: saline with Tween-80"}, "[2]": {"details": "dose: 100.0 mg/kg/injection, schedule: Q01DX009 (ip), vehicle: saline with Tween-80"}, "[3]": {"details": "dose: 100.0 mg/kg/injection, schedule: Q01DX001 (ip), vehicle: Klucel (hydroxypropylcellulose) (HPC)"}, "[4]": {"details": "dose: 200.0 mg/kg/injection, schedule: Q01DX001 (ip), vehicle: Klucel (hydroxypropylcellulose) (HPC)"}, "[5]": {"details": "dose: 400.0 mg/kg/injection, schedule: Q01DX001 (ip), vehicle: Klucel (hydroxypropylcellulose) (HPC)"}, "[6]": {"details": "dose: 100.0 mg/kg/injection, schedule: Q04DX003 (ip), vehicle: saline with Tween-80"}, "[7]": {"details": "dose: 100.0 mg/kg/injection, schedule: Q01DX009 (ip), vehicle: Klucel (hydroxypropylcellulose) (HPC)"}, "[8]": {"details": "dose: 200.0 mg/kg/injection, schedule: Q01DX009 (ip), vehicle: Klucel (hydroxypropylcellulose) (HPC)"}, "[9]": {"details": "dose: 400.0 mg/kg/injection, schedule: Q01DX009 (ip), vehicle: Klucel (hydroxypropylcellulose) (HPC)"}, "[10]": {"details": "dose: 50.0 mg/kg/injection, schedule: Q01DX009 (ip), vehicle: saline"}, "[11]": {"details": "dose: 100.0 mg/kg/injection, schedule: Q01DX009 (ip), vehicle: saline"}, "[12]": {"details": "dose: 200.0 mg/kg/injection, schedule: Q01DX009 (ip), vehicle: saline"}, "[13]": {"details": "dose: 100.0 mg/kg/injection, schedule: Q04DX003 (ip), vehicle: saline"}}, "note": "Toxic doses and inconclusive results are not listed."}
{"smiles": "CC(=O)N1N=C(N)SC1c1ccc(Cl)c(Cl)c1", "note": "(stereo not given)", "values": [{"measurement": "T/C", "setting": "[1]", "value": "113 % of control"}, {"measurement": "T/C", "setting": "[2]", "value": "113 % of control"}]}
{"smiles": "CC1=CC2C(C3C=CC2(C)C(=O)C3(C)Cc2ccccc2)C(C)(Cc2ccccc2)C1=O", "note": "(stereo not given)", "values": [{"measurement": "T/C", "setting": "[3]", "value": "95 % of control"}, {"measurement": "T/C", "setting": "[4]", "value": "95 % of control"}, {"measurement": "T/C", "setting": "[5]", "value": "90 % of control"}]}
{"smiles": "CCCSCC(C)C", "values": [{"measurement": "T/C", "setting": "[6]", "value": "100 % of control"}, {"measurement": "T/C", "setting": "dose: 200.0 mg/kg/injection, schedule: Q04DX003 (ip), vehicle: saline with Tween-80", "value": "109 % of control"}, {"measurement": "T/C", "setting": "dose: 400.0 mg/kg/injection, schedule: Q04DX003 (ip), vehicle: saline with Tween-80", "value": "90 % of control"}]}
{"smiles": "Nc1cc(Cl)cc(Cl)c1C(=O)O", "values": [{"measurement": "T/C", "setting": "dose: 100.0 mg/kg/injection, schedule: Q01DX001 (ip), vehicle: other", "value": "95 % of control"}, {"measurement": "T/C", "setting": "dose: 200.0 mg/kg/injection, schedule: Q01DX001 (ip), vehicle: other", "value": "100 % of control"}, {"measurement": "T/C", "setting": "dose: 400.0 mg/kg/injection, schedule: Q01DX001 (ip), vehicle: other", "value": "95 % of control"}]}
{"smiles": "C[C@]12CCC(=O)C=C1CC[C@@H]1[C@@H]2CC[C@@]2(C)[C@H]1CC[C@]2(C)O", "values": [{"measurement": "T/C", "setting": "dose: 100.0 mg/kg/injection, schedule: Q01DX009 (sc), vehicle: steriod suspending solution", "value": "104 % of control"}, {"measurement": "T/C", "setting": "dose: 100.0 mg/kg/injection, schedule: Q04DX003 (sc), vehicle: steriod suspending solution", "value": "105 % of control"}, {"measurement": "T/C", "setting": "dose: 200.0 mg/kg/injection, schedule: Q01DX009 (sc), vehicle: steriod suspending solution", "value": "95 % of control"}, {"measurement": "T/C", "setting": "dose: 200.0 mg/kg/injection, schedule: Q04DX003 (sc), vehicle: steriod suspending solution", "value": "90 % of control"}, {"measurement": "T/C", "setting": "dose: 400.0 mg/kg/injection, schedule: Q04DX003 (sc), vehicle: steriod suspending solution", "value": "115 % of control"}]}
{"smiles": "CC1(C)C/C(=C\\c2ccc(Br)cc2)C(=O)c2ccccc21", "values": [{"measurement": "T/C", "setting": "[7]", "value": "100 % of control"}, {"measurement": "T/C", "setting": "[8]", "value": "105 % of control"}, {"measurement": "T/C", "setting": "[9]", "value": "95 % of control"}]}
{"smiles": "CC(C)(C)OC(=O)NC(CCSCC(=O)O)C(N)=O", "note": "(stereo not given)", "values": [{"measurement": "T/C", "setting": "[10]", "value": "91 % of control"}, {"measurement": "T/C", "setting": "[11]", "value": "88 % of control"}, {"measurement": "T/C", "setting": "[12]", "value": "95 % of control"}]}
{"smiles": "CSc1nc(C)c(Br)c(Sc2nc(N)nc3nc[nH]c23)n1", "values": [{"measurement": "T/C", "setting": "dose: 66.0 mg/kg/injection, schedule: Q04DX003 (ip), vehicle: saline with Tween-80", "value": "154 % of control"}, {"measurement": "T/C", "setting": "[6]", "value": "150 % of control"}, {"measurement": "T/C", "setting": "dose: 150.0 mg/kg/injection, schedule: Q04DX003 (ip), vehicle: saline with Tween-80", "value": "150 % of control"}]}
{"smiles": "CCN(CC)C(=O)Cn1cc(F)c(NC(C)=O)nc1=O", "values": [{"measurement": "T/C", "setting": "[2]", "value": "90 % of control"}, {"measurement": "T/C", "setting": "[13]", "value": "95 % of control"}, {"measurement": "T/C", "setting": "dose: 200.0 mg/kg/injection, schedule: Q01DX009 (ip), vehicle: saline with Tween-80", "value": "105 % of control"}, {"measurement": "T/C", "setting": "dose: 200.0 mg/kg/injection, schedule: Q04DX003 (ip), vehicle: saline", "value": "109 % of control"}, {"measurement": "T/C", "setting": "dose: 400.0 mg/kg/injection, schedule: Q01DX009 (ip), vehicle: saline with Tween-80", "value": "110 % of control"}, {"measurement": "T/C", "setting": "dose: 400.0 mg/kg/injection, schedule: Q04DX003 (ip), vehicle: saline", "value": "113 % of control"}]}
{"smiles": "CCOc1nc(OCC)nc(-c2cccn2-c2ccccc2)n1", "values": [{"measurement": "T/C", "setting": "[3]", "value": "100 % of control"}, {"measurement": "T/C", "setting": "[7]", "value": "86 % of control"}, {"measurement": "T/C", "setting": "[4]", "value": "104 % of control"}, {"measurement": "T/C", "setting": "[8]", "value": "100 % of control"}, {"measurement": "T/C", "setting": "[5]", "value": "90 % of control"}, {"measurement": "T/C", "setting": "[9]", "value": "104 % of control"}]}
{"smiles": "C[C@H](CCC(=O)O)[C@H]1CC[C@H]2[C@@H]3[C@H](O)C[C@@H]4C[C@H](O)CC[C@]4(C)[C@H]3C[C@H](O)[C@]12C", "note": "(tested in a mixture with another compound)", "values": [{"measurement": "T/C", "setting": "[11]", "value": "155 % of control"}, {"measurement": "T/C", "setting": "dose: 132.0 mg/kg/injection, schedule: Q04DX003 (ip), vehicle: saline sonified", "value": "122 % of control"}, {"measurement": "T/C", "setting": "dose: 200.0 mg/kg/injection, schedule: Q01DX009 (ip), vehicle: other", "value": "209 % of control"}, {"measurement": "T/C", "setting": "[12]", "value": "190 % of control"}, {"measurement": "T/C", "setting": "dose: 300.0 mg/kg/injection, schedule: Q04DX003 (ip), vehicle: saline sonified", "value": "166 % of control"}, {"measurement": "T/C", "setting": "dose: 400.0 mg/kg/injection, schedule: Q04DX003 (ip), vehicle: saline sonified", "value": "172 % of control"}]}
{"smiles": "CC(=O)Oc1c(Cl)c(Cl)c(C#N)c(Cl)c1C#N", "values": [{"measurement": "T/C", "setting": "[1]", "value": "111 % of control"}, {"measurement": "T/C", "setting": "[2]", "value": "122 % of control"}]}
{"smiles": "Cc1ccc(S(=O)(=O)O)cc1", "values": [{"measurement": "T/C", "setting": "dose: 25.0 mg/kg/injection, schedule: Q01DX009 (ip), vehicle: saline", "value": "91 % of control"}, {"measurement": "T/C", "setting": "[10]", "value": "91 % of control"}, {"measurement": "T/C", "setting": "dose: 50.0 mg/kg/injection, schedule: Q04DX003 (ip), vehicle: saline", "value": "100 % of control"}, {"measurement": "T/C", "setting": "[11]", "value": "108 % of control"}, {"measurement": "T/C", "setting": "[13]", "value": "95 % of control"}]}
